# Measurements as given in PubChem BioAssay (NCI).
#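 Following 48 hours of exposure in 96-well plates, responses at five concentrations were used to interpolate endpoints linearly. The concentration for 50% growth inhibition is given as GI50. TGI: total growth inhibition.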
# Assays:
# Assay in all cases: NCI-60 cell line screen, 48 h
# T-47D breast = system: T-47D breast
# DLD-1 colon = system: DLD-1 colon
# XF 498 CNS = system: XF 498 CNS
# LXFL 529 NSCLC = system: LXFL 529 NSCLC
# KM20L2 colon = system: KM20L2 colon
# SNB-78 CNS = system: SNB-78 CNS
# HOP-18 NSCLC = system: HOP-18 NSCLC
# RXF-631 renal = system: RXF-631 renal
# MDA-N = system: MDA-N
SMILES,GI50 (T-47D breast),TGI (T-47D breast),TGI (DLD-1 colon),TGI (XF 498 CNS),TGI (LXFL 529 NSCLC),TGI (KM20L2 colon),TGI (SNB-78 CNS),TGI (HOP-18 NSCLC),further results
COc1cc(/C=C\[N+](=O)[O-])ccc1OCc1ccccc1,2.25 µM,7.44 µM,,,,,,,
CN(CN1C(=O)C2Cc3ccccc3CN2C1=O)c1ccccn1 (configuration not stated),,,> 100 µM,> 100 µM,> 100 µM,> 100 µM,,,
O=C(Nc1ccc(Cl)cc1)c1ccc(NC2=C(Cl)C(=O)N(Cc3ccccc3)C2=O)cc1,20.6 µM,67.3 µM,,,,,,,
CCNC(=O)C#CC(=O)NCC,,,> 64.9 µM,> 100 µM,> 100 µM,> 100 µM,> 100 µM,> 100 µM,GI50 (SNB-78 CNS): > 100 µM; GI50 (HOP-18 NSCLC): > 10 µM; GI50 (DLD-1 colon): > 10 µM; GI50 (LXFL 529 NSCLC): > 10 µM; GI50 (RXF-631 renal): > 10 µM; TGI (RXF-631 renal): > 100 µM; GI50 (KM20L2 colon): > 10 µM
COC1OC(CO)C(O)C(O)C1Br (configuration not stated),,,> 100 µM,> 100 µM,> 100 µM,> 100 µM,> 100 µM,> 100 µM,TGI (RXF-631 renal): > 100 µM
COc1cccc(C(=O)N2CCc3ccccc32)c1OC,,,,> 100 µM,> 100 µM,> 100 µM,> 100 µM,> 100 µM,TGI (RXF-631 renal): > 100 µM
O=C1C[C@@H]2C(COC(=O)c3ccccc3)N(OCc3ccccc3)C[C@@H]2O1 (some centres not stated),,,> 100 µM,,> 100 µM,> 100 µM,> 100 µM,> 100 µM,TGI (RXF-631 renal): > 100 µM
N=c1nnc(=O)c2c(s1)-n1ncc(C(=O)O)c1NN2,,,> 100 µM,,> 100 µM,> 100 µM,,> 100 µM,
CC(=O)OC1CC2C(C)(C)C(=O)C=C[C@]2(C)C2CCC3(C)C(c4ccoc4)C(=O)[C@H]4O[C@]43[C@]12C (some centres not stated),,,28.3 µM,,> 100 µM,,> 100 µM,,
Cn1c(=O)nc2n(-c3cccc(F)c3)c3ccccc3nc-2c1=O,,,> 100 µM,,> 100 µM,45.4 µM,68.4 µM,> 100 µM,
C1CCN(c2nsc(N3CCCCC3)n2)CC1,,,> 100 µM,,> 100 µM,> 100 µM,> 100 µM,> 100 µM,TGI (RXF-631 renal): > 100 µM
NC1CCN(c2nc(Nc3cccc(C(F)(F)F)c3)c3c(=O)[nH]ccc3n2)CC1,1.56 µM,3.26 µM,,,,,,,
CCCCCCCCCCN(CCCCCCCCCC)CC(=O)c1ccc2cc(Br)c3ccccc3c2c1,2.44 µM,5.98 µM,,,,,,,
Cc1nc2ccc(Nc3nc(NCCN4CCOCC4)nc(Nc4ccc(F)cc4)n3)cc2n1Cc1ccccc1,2.66 µM,18.8 µM,,,,,,,
Cc1ccc(S(=O)(=O)NC(=O)NC23CC4CC(CC(F)(C4)C2)C3)cc1,,,> 100 µM,> 100 µM,> 100 µM,> 100 µM,> 100 µM,,
CC[C@@]1(O)C(=O)NCc2c1cc1n(c2=O)Cc2cc3c(N)cccc3nc2-1,0.623 µM,> 19.9 µM,,,,,,,GI50 (MDA-N): 3.4 µM; TGI (MDA-N): 28.1 µM
O=C(Nc1nc2ccccc2n1Cc1ccccc1)NC12CC3CC(CC(C3)C1)C2,,,> 100 µM,73.8 µM,> 100 µM,> 100 µM,49.1 µM,> 100 µM,

SMILES,GI50 (T-47D breast),TGI (T-47D breast),TGI (DLD-1 colon),TGI (XF 498 CNS),TGI (LXFL 529 NSCLC),TGI (KM20L2 colon),TGI (SNB-78 CNS),TGI (HOP-18 NSCLC),further results
Cc1c(C(=O)NCCO)[n+](=O)c2cc(Cl)ccc2n1[O-],,,> 100 µM,,> 100 µM,> 100 µM,> 100 µM,> 100 µM,
CC(=O)OCCOCNC(=S)N/N=C(\C)c1cnc2ccccc2n1,,,> 100 µM,> 100 µM,> 100 µM,> 100 µM,> 100 µM,> 100 µM,
COc1cccc(NC(=O)CC(=O)N2N=C(N(CCC#N)c3ccccc3C)CC2c2ccccc2)c1 (configuration not stated),,,> 100 µM,,> 100 µM,> 100 µM,> 100 µM,> 100 µM,TGI (RXF-631 renal): > 100 µM
COc1cc2c3c(n(CCCNCCN)c(=O)c2cc1OC)-c1cc2c(cc1C3=O)OCO2,> 100 µM,> 100 µM,,,,,,,
NC(=O)N/N=C/C(/C=N/NC(N)=O)[N+](=O)[O-],,,> 100 µM,> 100 µM,> 100 µM,> 100 µM,,,TGI (RXF-631 renal): > 100 µM
Clc1ccc2[nH]cc(-c3nc(-c4c[nH]c5ncccc45)cs3)c2c1,4.88 µM,33.7 µM,,,,,,,
Cc1c(C(=O)c2ccccc2C(=O)O)c2ccccc2n1C,,,> 100 µM,> 100 µM,> 100 µM,> 100 µM,> 100 µM,,
COc1ccccc1NC(=O)n1nc(N)c2ccccc21,12.1 µM,> 100 µM,,,,,,,
CC1=C[C@H]2c3c(c(O)c(O)c4oc5ccccc5c(=O)c34)[C@H](c3cc(O)c(O)c4oc5ccccc5c(=O)c34)[C@H]2C(C)(C)C1,0.764 µM,19.3 µM,,,,,,,
O=[N+]([O-])c1ccc(N/N=C/c2c(O)ccc3ccccc23)nc1,6.39 µM,> 100 µM,,,,,,,
CN(C)N1C(=O)c2ccccc2NC1c1ccccc1 (configuration not stated),,> 100 µM,,,,,,,TGI (MDA-N): > 100 µM
CCOc1cc2c(NCCCN(CCO)CCO)ncnc2c(OCC)c1OCC,,> 100 µM,,,,,,,TGI (MDA-N): > 100 µM
N=C(N=C(N)N)N1CCN(c2ccncc2)CC1,> 1000 µM,> 1000 µM,,,,,,,
O=C(NCCCNc1cc(-c2cn(-c3ccccc3)nc2-c2cccc(O)c2)ccn1)c1ccccc1,1.57 µM,6.89 µM,,,,,,,
CC(=O)O[C@H]1CC[C@@]2(C)C(=CC[C@H]3C4=CC=C(C(C)=O)[C@@]4(C)CCC32)C1 (some centres not stated),,,> 100 µM,,> 100 µM,> 100 µM,> 100 µM,> 100 µM,
O=C1C=C(Br)C(=O)C12CCc1ccccc12 (configuration not stated),,50.4 µM,28.8 µM,28.8 µM,13.2 µM,64.5 µM,59.4 µM,16.1 µM,TGI (MDA-N): 38 µM
